Data taken from patent US11046672B2, “Indolinones compounds and their use in the treatment of fibrotic diseases” (RESPIVERT LIMITED, priority 2015, dated 2021).
“And” between values parts separate entries of the source, which are not always exact repeats. Identical values can stand only once. Like-named read-outs stand apart in the source and are kept apart here. Blank lines part the entries; values can stand above or below the molecule they belong to.

How the values were obtained:
VEGFR2 = VEGFR2 (Homo sapiens (Human), UniProt P35968); experiment: VEGF165 induced phosphorylation of VEGFR2 in endothelial cells (TeloHAEC, HTRF); type: cell-based; conditions: HAEC cells; n = 1 unless otherwise indicated
Chain of VEGFR2 (P35968 20-1356): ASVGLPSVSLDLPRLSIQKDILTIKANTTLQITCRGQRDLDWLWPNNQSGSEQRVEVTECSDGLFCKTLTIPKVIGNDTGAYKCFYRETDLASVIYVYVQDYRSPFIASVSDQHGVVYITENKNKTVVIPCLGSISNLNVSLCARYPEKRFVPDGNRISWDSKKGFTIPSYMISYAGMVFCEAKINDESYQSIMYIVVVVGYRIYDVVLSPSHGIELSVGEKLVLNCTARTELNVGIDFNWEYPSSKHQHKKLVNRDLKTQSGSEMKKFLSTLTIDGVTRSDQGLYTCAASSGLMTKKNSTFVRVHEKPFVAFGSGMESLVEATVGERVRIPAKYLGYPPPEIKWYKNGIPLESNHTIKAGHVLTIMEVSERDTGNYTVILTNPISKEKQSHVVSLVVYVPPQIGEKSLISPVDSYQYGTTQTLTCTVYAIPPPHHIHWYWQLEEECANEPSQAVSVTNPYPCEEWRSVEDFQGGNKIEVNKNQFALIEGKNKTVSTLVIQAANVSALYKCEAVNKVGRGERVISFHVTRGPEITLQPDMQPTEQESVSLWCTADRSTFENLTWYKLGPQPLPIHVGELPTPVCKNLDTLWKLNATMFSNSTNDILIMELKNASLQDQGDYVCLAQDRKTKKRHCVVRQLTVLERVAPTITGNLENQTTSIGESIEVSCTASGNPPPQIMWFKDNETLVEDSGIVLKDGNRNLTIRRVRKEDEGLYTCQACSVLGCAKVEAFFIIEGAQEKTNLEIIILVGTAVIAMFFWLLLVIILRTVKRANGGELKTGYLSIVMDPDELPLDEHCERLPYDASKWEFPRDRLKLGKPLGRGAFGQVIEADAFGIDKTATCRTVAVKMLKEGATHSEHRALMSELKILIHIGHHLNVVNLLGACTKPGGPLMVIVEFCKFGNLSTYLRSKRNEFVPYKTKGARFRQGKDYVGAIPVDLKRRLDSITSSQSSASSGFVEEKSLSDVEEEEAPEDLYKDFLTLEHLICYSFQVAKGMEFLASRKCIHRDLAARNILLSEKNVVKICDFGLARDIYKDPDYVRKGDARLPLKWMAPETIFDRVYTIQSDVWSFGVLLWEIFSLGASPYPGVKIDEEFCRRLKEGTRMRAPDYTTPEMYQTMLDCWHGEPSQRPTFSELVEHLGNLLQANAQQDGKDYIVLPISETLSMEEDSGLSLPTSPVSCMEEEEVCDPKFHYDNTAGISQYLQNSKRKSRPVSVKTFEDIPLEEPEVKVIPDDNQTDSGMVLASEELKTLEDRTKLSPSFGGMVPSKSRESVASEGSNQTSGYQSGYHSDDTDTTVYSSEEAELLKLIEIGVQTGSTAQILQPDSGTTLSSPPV

MRC5 cells = experiment: Cell viability assay in MRC5 cells (MTT)
PDGFRβ [1] = molecular target: T1, PDGFRβ (Homo sapiens (Human), UniProt P09619); experiment: PDGF-BB induced phosphorylation of PDGFRβ in fibroblasts (MRC5 cells, HTRF); type: cell-based; conditions: MRC5 cells; n = 1 unless otherwise indicated; read-out: PDGFBB-induced PDGFRβ phosphorylation in MRC5 cells (IC50)
T1 sequence (P09619 33-1106): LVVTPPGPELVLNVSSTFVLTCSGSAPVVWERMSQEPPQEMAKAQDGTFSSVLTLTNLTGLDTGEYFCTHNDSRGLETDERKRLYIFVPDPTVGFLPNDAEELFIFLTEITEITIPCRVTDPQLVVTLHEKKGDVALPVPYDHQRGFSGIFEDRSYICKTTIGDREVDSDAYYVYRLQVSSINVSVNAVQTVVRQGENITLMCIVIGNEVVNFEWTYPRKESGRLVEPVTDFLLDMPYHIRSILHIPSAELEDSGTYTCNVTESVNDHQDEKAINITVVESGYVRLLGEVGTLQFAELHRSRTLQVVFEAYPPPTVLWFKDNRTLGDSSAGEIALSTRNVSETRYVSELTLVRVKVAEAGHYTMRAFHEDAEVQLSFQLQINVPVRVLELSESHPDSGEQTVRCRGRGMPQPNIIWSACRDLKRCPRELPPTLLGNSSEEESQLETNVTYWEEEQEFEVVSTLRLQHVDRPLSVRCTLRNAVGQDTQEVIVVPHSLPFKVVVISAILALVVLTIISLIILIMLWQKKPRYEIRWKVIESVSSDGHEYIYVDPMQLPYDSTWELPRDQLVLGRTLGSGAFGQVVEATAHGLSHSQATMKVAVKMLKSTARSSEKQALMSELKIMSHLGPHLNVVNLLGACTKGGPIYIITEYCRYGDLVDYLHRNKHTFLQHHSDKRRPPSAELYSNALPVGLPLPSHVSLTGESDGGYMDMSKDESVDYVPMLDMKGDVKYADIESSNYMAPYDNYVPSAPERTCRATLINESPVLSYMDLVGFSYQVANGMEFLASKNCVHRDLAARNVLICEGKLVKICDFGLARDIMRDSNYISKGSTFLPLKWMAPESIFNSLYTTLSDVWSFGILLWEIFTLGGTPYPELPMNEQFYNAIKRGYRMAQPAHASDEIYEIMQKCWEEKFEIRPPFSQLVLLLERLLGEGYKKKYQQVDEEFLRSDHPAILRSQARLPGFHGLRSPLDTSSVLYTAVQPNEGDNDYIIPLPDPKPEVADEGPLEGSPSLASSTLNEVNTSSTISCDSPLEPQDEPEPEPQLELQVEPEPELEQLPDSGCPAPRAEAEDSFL

PAMPA permeability assay = type: in vitro ADME; conditions: PAMPA, donor and acceptor compartments
[2] = Pharmacokinetic measurements in rats (intravenous and intra-tracheal dosing); type: in vivo; conditions: rat; for concentration at 0.1 h / concentration at 1.5 h / concentration at 24 h: lung, read-out: lung concentration (nM) at time (h); for Kp at 0.1 h / Kp at 1.5 h: lung/plasma
PDGFRβ [3] = molecular target: T1, PDGFRβ; conditions: read-out: Ki PDGFRβ; mean, n = 2 unless otherwise indicated
PDGFRβ [4] = molecular target: T1, PDGFRβ; experiment: Duration of action (washout) against PDGF-BB induced phosphorylation of PDGFRβ in human fetal lung fibroblast cells; type: cell-based; conditions: wash-out, MRC-5 cells

IC50 (VEGFR2): 0.0322 µM
Structure (SMILES): COC(=O)c1ccc2c(c1)NC(=O)/C2=C(\Nc1ccc(C(=O)N(C)OC)cc1)c1ccccc1 [Example 1, (Z)-Methyl 3-(((4-(methoxy(methyl)carbamoyl)phenyl)amino)(phenyl)methylene)-2-oxoindoline-6-carboxylate]
Cell viability at 100 nM (%) (MRC5 cells): 116.6% | Cell viability at 300 nM (%) (MRC5 cells): 97 (n = 2) % | Cell viability at 1000 nM (%) (MRC5 cells): 87 (n = 2) %

IC50 (PDGFRβ [1]): 0.0152 µM | % Recovery (PAMPA permeability assay): 44.9% and 75.6% | concentration at 0.1 h ([2]; male, CD, iv, i.v. dosing, 0.1 h): 419 nM | concentration at 1.5 h ([2]; male, CD, iv, i.v. dosing, 1.5 h): 266 nM | concentration at 24 h ([2]; male, CD, iv, i.v. dosing, 24 h): 12 nM | concentration at 0.1 h ([2]; male, CD, other: intra-tracheal, i.t. dosing, 0.1 h): 5540 nM | concentration at 1.5 h ([2]; male, CD, other: intra-tracheal, i.t. dosing, 1.5 h): 1540 nM | concentration at 24 h ([2]; male, CD, other: intra-tracheal, i.t. dosing, 24 h): 218 nM | Kp at 0.1 h ([2]; male, CD, iv, i.v. dosing, 0.1 h, read-out: lung/plasma ratio at time(h)): 77 | Kp at 1.5 h ([2]; male, CD, iv, i.v. dosing, 1.5 h, read-out: lung/plasma ratio at time(h)): 285 | Kp at 0.1 h ([2]; male, CD, other: intra-tracheal, i.t. dosing, 0.1 h, read-out: lung/plasma conc ratio at time(h)): 279 | Kp at 1.5 h ([2]; male, CD, other: intra-tracheal, i.t. dosing, 1.5 h, read-out: lung/plasma conc ratio at time(h)): 1320 | MRT ([2]; male, CD, plasma, iv, i.v. dosing): 2.4 h | clearance ([2]; male, CD, plasma, iv, i.v. dosing (i.v. dose 0.1-0.5 per compound)): 462 mL/min/kg | Vd ([2]; male, CD, plasma, iv, i.v. dosing, read-out: Vss): 39 L/kg | half-life ([2]; male, CD, plasma, iv, i.v. dosing, read-out: t½ (converted)): 2.2 h | Lung conc i.t./i.v. Ratio at time (h) ([2]; 0.1 h): 13.2 | Lung conc i.t./i.v. Ratio at time (h) ([2]; 1.5 h): 5.8 | Lung conc i.t./i.v. Ratio at time (h) ([2]; 24 h): 18.2 | i.t. BAV (%) ([2]; i.t. dosing (i.t. dose 0.1-0.5 per compound)): 67% | BAL % administered dose at time (h) ([2]; i.t. dosing, 0.1 h): 3% | BAL % administered dose at time (h) ([2]; i.t. dosing, 1.5 h): 0.3% | BAL % administered dose at time (h) ([2]; i.t. dosing, 24 h): 0.1% | BAL % administered dose at time (h) ([2]; i.v. dosing, 0.1 h): 0.01% | BAL % administered dose at time (h) ([2]; i.v. dosing, 1.5 h): BLQ | BAL % administered dose at time (h) ([2]; i.v. dosing, 24 h): BLQ | lung/plasma ratio at time(h) ([2]; i.v. dosing, 24 h): BLQ | Ki (PDGFRβ [3]): 0.00966 µM | Duration of action as inhibitors of PDGFRβ compared with nintedanib (PDGFRβ [4]): longer duration of action
Structure (SMILES): COC(=O)c1ccc2c(c1)NC(=O)/C2=C(\Nc1ccc(C(=O)NOCCN2CCN(C)CC2)cc1)c1ccccc1 [Example 4, (Z)-Methyl 3-(((4-((2-(4-methylpiperazin-1-yl)ethoxy)carbamoyl)phenyl)amino)(phenyl)methylene)-2-oxoindoline-6-carboxylate]
Cell viability at 100 nM (%) (MRC5 cells): 99.2% | Cell viability at 300 nM (%) (MRC5 cells): 94.8% | Cell viability at 1000 nM (%) (MRC5 cells): 88.8%
